Columns and labels:
[1] = system: paresis/paralysis; settings: immediate or sustained release formulations; earlier application; cited from earlier work
[2] = system: paresis/paralysis of the tongue, larynx, pharynx, esophagus, urinary bladder sphincter, muscles of the lumbar and lumbo-sacral spine and of the pelvis and …; experiment: Opiate treatment of dogs with neuropathic paresis/paralysis (UROS/OPS case studies); settings: dog, in vivo
From the text: In order to clinically diagnose and/or evaluate the effectiveness of a dose of an anti-opiopathic active agent or formulation, over time, when being used to treat an opiopathic ailment, the following grading protocol can be employed to quantify and document function of the target muscle(s) and/or organ(s).
In grading the evaluations, an organ is considered to be neurologically normal when there is no neuropathology affecting its function. Because in most cases an organ can be clearly identified as having normal neurologic function, decreased neurologic function (paresis), or no neurologic function (paralysis), the documenting of the degree of remaining neurologic function of an organ lends itself to a simple grading system. An organ that functions normally and has no observable signs or symptoms is considered to be neurologically normal and receives the lowest score (0). An organ that has no function as a result of a neurologic/neurogenic ailment and is paralyzed, receives the highest score (10). An organ that has a partial loss of function (paresis) receives a score between (1) and (9), depending on the degree of function remaining. A decrease of the score of a function after administration of an anti-opiopathic active agent or formulation, indicates effectiveness roughly proportional to the relative decrease. […]

[3] = system: MS, Lou Gherig's Disease and Parkinson's Disease; settings: in vivo; cited from earlier work
[4] = system: central pain in MS patients; settings: intravenous 1.0 mg/ml morphine in physiological saline, response only after high doses; cited from earlier work

In the case of COc1ccc2c3c1O[C@H]1C(=O)CC[C@@]4(O)[C@@H](C2)N(C)CC[C@]314 [oxycodone], the reversal of paresis/paralysis [1] is given as “successful reversal”, the “reversing paresis/paralysis in the larynx” value [2] is given as “effective” and the “treating urinary bladder sphincter paresis/paralysis” value [2] is given as “effective”.

In the case of CN1CC[C@]23c4c5ccc(O)c4O[C@H]2[C@@H](O)C=C[C@H]3[C@H]1C5.O=S(=O)(O)O [morphine sulfate], the reversal of paresis/paralysis [1] is given as “successful reversal”.

In the case of O=C1CC[C@@]2(O)[C@H]3Cc4ccc(O)c5c4[C@@]2(CCN3CC2CC2)[C@H]1O5 [naltrexone], the treatment outcome [3] is given as “limited success”.

In the case of COc1ccc2c3c1O[C@H]1C(=O)CC[C@H]4[C@@H](C2)N(C)CC[C@]314 [hydrocodone], the reversal of paresis/paralysis [1] is given as “successful reversal”.

For CN1CC[C@]23c4c5ccc(O)c4O[C@H]2[C@@H](O)C=C[C@H]3[C@H]1C5 [morphine], the “responsiveness of neuropathic (central) pain” value [4] is listed as “poorly responsive, but not totally unresponsive”.

Source: US20070232638A1, “Opiopathies” (priority 2006, published 2007)
